# From publication PMC5360270 (Journal of medicinal chemistry, 2016)
# How the values were obtained:
# Format in all cases: cell-based
# HIV-1NL4-3 = assay: Antiviral p24 assay in MT-4 cells, wild-type HIV-1NL4-3; conditions: 50 TCID50 wild-type HIV-1NL4-3, p24 assay
# HIV-1B = assay: Antiviral p24 assay in MT-4 cells, multi-drug resistant variant HIV-1B; conditions: 50 TCID50 HIV-1B (multi-drug resistant)
# HIV-1DRV^RP20 = assay: Antiviral p24 assay in MT-4 cells, multi-drug resistant variant HIV-1DRVRP20; conditions: 50 TCID50 HIV-1DRV^RP20 (multi-drug resistant)
# HIV-1LAI = assay: Antiviral assay in MT-2 cells exposed to HIV-1LAI, MTT assay; conditions: Human immunodeficiency virus 1, MT2
# HIV-1C = assay: Antiviral p24 assay in MT-4 cells, multi-drug resistant variant HIV-1C; conditions: 50 TCID50 HIV-1C (multi-drug resistant)
SMILES,Mean IC50 ± SD (HIV-1NL4-3),Mean IC50 ± SD (HIV-1B),Mean IC50 ± SD (HIV-1DRV^RP20),IC50 (HIV-1LAI) [nM],Mean IC50 ± SD (HIV-1C)
"COc1ccc(S(=O)(=O)N(CC(C)C)C[C@@H](O)[C@H](CC23CC4CC(CC(C4)C2)C3)NC(=O)O[C@H]2CO[C@H]3OCC[C@H]32)cc1 [15d, (3R,3aS,6aR)-Hexahydrofuro[2,3-b]furan-3-yl ((2S,3R)-1-((1s,3R)-adamantan-1-yl)-3-hydroxy-4-((N-isobutyl-4-methoxyphenyl)sulfonamido)butan-2-yl)carbamate]",low nanomolar,did not show any appreciable antiviral activity,did not show any appreciable antiviral activity,,
"CC(C)CN(C[C@@H](O)[C@H](Cc1ccccc1)NC(=O)O[C@H]1CO[C@H]2OCC[C@H]21)S(=O)(=O)c1ccc(N)cc1 [Darunavir, darunavir]",,,,3,
"COc1ccc(S(=O)(=O)N(CC(C)C)C[C@@H](O)[C@H](CC23CC4CC(CC(C4)C2)C3)NC(=O)O[C@H]2CCOC2)cc1 [15a, (S)-Tetrahydrofuran-3-yl ((2S,3R)-1-((1s,3R)-adamantan-1-yl)-3-hydroxy-4-((N-isobutyl-4-methoxyphenyl)sulfonamido)butan-2-yl)carbamate]",,did not exhibit appreciable antiviral activity,did not exhibit appreciable antiviral activity,,did not exhibit appreciable antiviral activity
